Patent publication US9512111B2, “N-sulfonylated tetrahydroquinolines and related bicyclic compounds for inhibition of RORγ activity and the treatment of disease” (Lycera Corporation, priority 2010, dated 2016)
pIC50: −log10 of the molar value. Where two headings read alike, the source gives them in different places.

Assays:
[1] = molecular target: T1, RORγt (Homo sapiens, UniProt P51449); assay: RORγ Reporter Assay (GAL4-UAS luciferase reporter in HEK293 cells); type: cell-based
T1 construct: The resulting GAL4-RORγt-LBD fusion construct was placed under the control of a constitutive cytomegalovirus (CMV) promoter; expressed in transfected cells; host or cells: HEK293
T1 sequence (P51449 269-508 limits assumed): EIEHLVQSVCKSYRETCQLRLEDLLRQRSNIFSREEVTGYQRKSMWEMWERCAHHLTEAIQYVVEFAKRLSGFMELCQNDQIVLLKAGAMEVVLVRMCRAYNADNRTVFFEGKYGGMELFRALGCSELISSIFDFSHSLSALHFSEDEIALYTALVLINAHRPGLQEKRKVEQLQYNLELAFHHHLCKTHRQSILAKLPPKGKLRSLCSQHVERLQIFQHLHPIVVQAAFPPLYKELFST
Protocol: Inhibition of RORγt in cells was determined using a GAL4-UAS reporter system in HEK293 cells employing a luciferase readout. The RORγt DNA binding domain (DBD) was replaced with the heterologous yeast GAL4 DBD using standard recombinant DNA methods. The resulting GAL4-RORγt-LBD fusion construct was placed under the control of a constitutive cytomegalovirus (CMV) promoter by cloning it into the CMV-driven mammalian expression vector pcDNA3.1+− (Promega Corporation, Madison, Wis.).
A transcriptional reporter expression construct was used to monitor GAL4-RORγ activity, which contained five copies of the GAL4 binding site enhancer (UAS) controlling expression of a firefly luciferase reporter. This construct, pGL4.31, is commercially available from Promega Corporation, Madison Wis. Both expression constructs were transfected in bulk into HEK-293 cells using standard lipid-based transfection techniques, which allowed the GAL4 RORγ-LBD fusion protein to drive expression of the luciferase reporter. Control transfections were performed with an empty pCDN3.1+ vector.
The next day, cells were plated into 384 well plates, test compound was added, and the plates were incubated overnight. […] Promega firefly assays kits were used to stabilize the luciferase signal, and the intensity of the luciferase signal was measured using an EnVision Multilabel Plate Reader (Perkin Elmer, Waltham, Mass.).
HEK 293 cells are transfected with GAL4-NR construct (CMV:NR-LBD in pcDNA3.1neo) and the pGL4.31 GAL4-luciferase reporter construct (Promega). For a background control, use empty pcDNA3.1neo and pGL4.31. Transfection protocol is for a single T75 flask performed with Minis Trans-It 293 reagent. A 60 μL aliquot of Trans-IT reagent at room temperature is added drop wise to 1.5 mL of Optimem (Invitrogen). The resulting solution is mixed by inversion and incubated for 5-20 minutes at room temperature. This reagent mixture is added to 10 μg of DNA (5 μg of each expression vector used at a concentration of 1 mg/mL). The solution is mixed by inversion and incubated at room temperature for 20 minutes.
While the Trans-IT reagent and DNA are incubating, harvest HEK-293 cells. Remove media from flasks via aspiration and add enough TrypLE Express (stable Trypsin-like reagent, Invitrogen) to cover the bottom of the flask. The mixture is incubated at room temperature until the cells are visibly loose in the flask (approximately 2-5 minutes). Add an equal volume of complete growth media, and then pipette to achieve a single cell suspension. Spin down 1×10^7 cells and re-suspend the cells in 10 mL of complete growth media (DMEM high glucose/10% dialyzed FBS/pen/strep; Invitrogen). The cells and transfection mixture are added to one T75 flask. The contents of the T75 flax are mixed and incubated overnight at 37° C. and 5% CO2.
After 16-24 hours, cells are harvested and plated for test compound screening. Cells may be harvested as described above. Next, cells are counted and an appropriate number of cells are spun down. Then, cells are aspirated and re-suspended in complete growth media at a concentration of 0.5×10^6 cells/mL to provide a cell suspension. Plate 20 μL of the cell suspension into a white, tissue-culture treated 384 well plate. (10,000 cells/well).
A 10 mM stock solution of test compound in dimethylsulfoxide (DMSO) was diluted to 500× the final test concentration in DMSO, then diluted to 5× the final test concentration with complete growth medium to provide the Test Compound Solution. The concentration of DMSO in the Test Compound Solution was […]. A 5 μL aliquot of Test Compound Solution was added to each test well in the 384 well plate previously plated with the cell suspension. Next, plates are spun briefly and incubated overnight at 37° C. and 5% CO2.
After 16-24 hours, the luciferase assay is performed. Plates and luciferase reagent (e.g. One-Glo® or Dual Glo®; Promega, Madison, Wis.) are brought to room temperature.

[2] = molecular target: T2, RORγ-LBD (Homo sapiens, UniProt P51449); assay: RORγ-Ligand Binding Domain TR-FRET Assay; type: biochemical
T2 construct: HIS-tagged RORγ-LBD was recombinantly expressed in SF9 cells; made in house; host or cells: SF9 cells (baculovirus); unpurified lysate
T2 sequence (P51449 269-508 limits assumed): T1 sequence (P51449 269-508 limits assumed)
Summary of the method: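 Unpurified His-tagged LBD in Sf9 lysate (~10 nM final) in 25 mM HEPES pH 7.0, 100 mM NaCl, 0.01% Tween, 0.1% BSA, with biotinylated SRC1-2 LXXLL peptide (450 nM), Eu anti-His (2 nM) and streptavidin-APC (60 nM). Incubated 4 h to overnight; IC50 from 665/615 nm TR-FRET ratio.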

[3] = benzoxazines, Table 9, HEK cells
[4] = Table 7, tetrahydroquinolines, HEK293 cells, read-out: RORγ HEK IC50

## N#Cc1cccc(S(=O)(=O)N2C[C@H](CO)Oc3ccc(NC(=O)c4c(F)cccc4C(F)(F)F)cc32)c1 [VI-62]
[1]; [3]
  pIC50: > 4.82
[2]; benzoxazines, Table 9
  pIC50: > 4.82

## COCC1CN(S(=O)(=O)c2ccc(F)c(F)c2)c2cc(NC(=O)Cc3ccc(F)cc3)ccc2O1 (centres unmarked) [VI-78]
[1]; [3]
  pIC50: > 4.82
[2]; benzoxazines, Table 9
  pIC50: > 4.82

## CCOCC1CN(S(=O)(=O)c2ccc(F)c(F)c2)c2cc(NC(=O)c3c(F)cccc3F)ccc2O1 (centres unmarked) [VI-99]
[1]; [3]
  pIC50: > 4.82
[2]; benzoxazines, Table 9
  pIC50: > 4.82

## O=C(Nc1cc2c(cc1F)O[C@@H](CO)CN2S(=O)(=O)c1ccc(F)cc1)c1c(F)cccc1Cl [VI-47]
[1]; [3]
  pIC50: > 4.82
[2]; benzoxazines, Table 9
  pIC50: > 4.82

## Cc1cccc(Cl)c1C(=O)Nc1ccc2c(c1)N(S(=O)(=O)c1cccc(C#N)c1)C[C@H](CO)O2 [VI-43]
[1]; [3]
  pIC50: > 4.82
[2]; benzoxazines, Table 9
  pIC50: > 4.82

## O=C(Nc1ccc2c(c1)N(S(=O)(=O)c1ccc(F)cc1)C[C@@H](CO)O2)c1c(Cl)cccc1Cl [VI-106]
[1]; [3]
  pIC50: > 4.82
[2]; benzoxazines, Table 9
  pIC50: > 4.82

## Cc1nn(C(F)F)cc1S(=O)(=O)N1C[C@H](CO)Oc2ccc(NC(=O)c3c(F)cccc3Cl)cc21 [VI-30]
[1]; [3]
  pIC50: > 4.82
[2]; benzoxazines, Table 9
  pIC50: > 4.82

## CCOCC1CN(S(=O)(=O)c2ccc(F)c(F)c2)c2cc(NC(=O)c3c(F)cccc3Cl)ccc2O1 (centres unmarked) [VI-89]
[1]; [3]
  pIC50: > 4.82
[2]; benzoxazines, Table 9
  pIC50: > 4.82

## O=C(Nc1c(F)cccc1Cl)c1ccc2c(c1)N(S(=O)(=O)c1ccc(F)cc1)CCO2 [VI-127]
[1]; [3]
  pIC50: > 4.82

## CC(C)OCC1CN(S(=O)(=O)c2ccc(F)cc2)c2cc(NC(=O)c3c(F)cccc3F)ccc2O1 (centres unmarked) [VI-115]
[1]; [3]
  pIC50: > 4.82
[2]; benzoxazines, Table 9
  pIC50: > 4.82

## O=C(Nc1ccc2c(c1)N(S(=O)(=O)c1ccc(F)c(F)c1)C[C@@H](CO)O2)c1c(F)cccc1C(F)(F)F [VI-72]
[1]; [3]
  pIC50: > 4.82
[2]; benzoxazines, Table 9
  pIC50: > 4.82

## O=C(Nc1ccc2c(c1)N(S(=O)(=O)c1ccccc1)C[C@H](CO)O2)c1c(F)cccc1Cl [VI-24]
[1]; [3]
  pIC50: > 4.82
[2]; benzoxazines, Table 9
  pIC50: > 4.82

## COCC1CN(S(=O)(=O)c2ccc(F)cc2)c2cc(NC(=O)c3c(Cl)cccc3C(F)(F)F)ccc2O1 (centres unmarked) [VI-104]
[1]; [3]
  pIC50: > 4.82
[2]; benzoxazines, Table 9
  pIC50: > 4.82

## COc1ccc(S(=O)(=O)N2C[C@H](CO)Oc3ccc(NC(=O)c4c(Cl)cccc4Cl)cc32)cn1 [VI-26]
[1]; [3]
  pIC50: > 4.82
[2]; benzoxazines, Table 9
  pIC50: > 4.82

## COCC1CN(S(=O)(=O)c2ccc(Cl)cc2)c2cc(NC(=O)c3c(Cl)cccc3Cl)ccc2O1 (centres unmarked) [VI-95]
[1]; [3]
  pIC50: > 4.82
[2]; benzoxazines, Table 9
  pIC50: > 4.82

## O=C(Nc1ccc2c(c1)N(S(=O)(=O)c1ccc(F)cc1)CC(C(F)(F)F)O2)c1c(Cl)cccc1Cl (centres unmarked) [VI-107]
[1]; [3]
  pIC50: > 4.82
[2]; benzoxazines, Table 9
  pIC50: > 4.82

## O=C(Nc1ccccc1Cl)c1ccc2c(c1)N(S(=O)(=O)c1ccc(F)cc1)CCO2 [VI-128]
[1]; [3]
  pIC50: > 4.82

## CC(C)OCC1CN(S(=O)(=O)c2ccc(F)cc2)c2cc(NC(=O)c3c(F)cccc3Cl)ccc2O1 (centres unmarked) [VI-121]
[1]; [3]
  pIC50: > 4.82
[2]; benzoxazines, Table 9
  pIC50: > 4.82

## O=C(Nc1c(Cl)cccc1Cl)c1ccc2c(c1)N(S(=O)(=O)c1ccc(F)cc1)CCO2 [VI-126]
[1]; [3]
  pIC50: > 4.82

## Cc1cc2c(cc1NC(=O)c1c(F)cccc1Cl)N(S(=O)(=O)c1ccc(F)cc1)CCC2 [Compound 6, 2-Chloro-6-fluoro-N-[1-(4-fluorobenzenesulfonyl)-6-methyl-1,2,3,4-tetrahydroquinolin-7-yl]benzamide]
[1]; [4]
  pIC50: > 4.82

## O=C(Nc1ccc2c(c1)N(S(=O)(=O)c1ccc(Cl)cc1)CCC2)c1c(F)cccc1Cl [Compound 5, 2-Chloro-N-[1-(4-chlorobenzenesulfonyl)-1,2,3,4-tetrahydroquinolin-7-yl]-6-fluorobenzamide]
[1]; [4]
  pIC50: > 4.82

## C[C@H]1CN(S(=O)(=O)c2cccc(C#N)c2)c2cc(NC(=O)c3c(F)cccc3Cl)ccc2O1 [VI-6]
[2]; benzoxazines, Table 9
  pIC50: > 4.82

## C[C@H]1CN(S(=O)(=O)c2ccc(F)cc2)c2cc(NC(=O)C3(c4ccc(Cl)cc4)CC3)ccc2O1 [VI-131]
[2]; benzoxazines, Table 9
  pIC50: > 4.82

## O=C(Nc1ccc2cnn(S(=O)(=O)c3cc(Cl)c(Cl)s3)c2c1)c1c(F)cccc1Cl [Compound V-97]
[2]; Table 8, indazoles
  pIC50: > 4.82

## O=C(Cc1ccc(F)cc1)Nc1ccc2c(c1)N(S(=O)(=O)c1ccc(Cl)cc1)C[C@H](CO)O2 [VI-68]
[2]; benzoxazines, Table 9
  pIC50: > 4.82

## O=C(Nc1ccc2cnn(S(=O)(=O)Cc3ccccc3)c2c1)c1c(F)cccc1Cl [Compound V-155]
[2]; Table 8, indazoles
  pIC50: > 4.82

## Cc1ncc(CC(=O)Nc2ccc3cnn(S(=O)(=O)c4cccc(OC(F)F)c4)c3c2)s1 [Compound V-3]
[2]; Table 8, indazoles
  pIC50: > 4.82

## C[C@H]1CN(S(=O)(=O)c2ccc(F)cc2)c2cc(NC(=O)c3c(F)cccc3C(F)(F)F)ccc2O1 [VI-19]
[2]; benzoxazines, Table 9
  pIC50: > 4.82

## COC(=O)c1sccc1S(=O)(=O)n1ncc2ccc(NC(=O)c3c(F)cccc3Cl)cc21 [Compound V-144]
[2]; Table 8, indazoles
  pIC50: > 4.82

## O=C(Nc1ccc2cnn(S(=O)(=O)c3cccc(Cl)c3)c2c1)c1c(F)cccc1Cl [Compound V-53]
[2]; Table 8, indazoles
  pIC50: > 4.82

## Cc1cc(C)cc(S(=O)(=O)n2ncc3ccc(NC(=O)c4c(F)cccc4Cl)cc32)c1 [Compound V-123]
[2]; Table 8, indazoles
  pIC50: > 4.82

## O=C(Nc1ccc2c(c1)N(S(=O)(=O)c1ccc(F)cc1)CC(C(F)(F)F)O2)c1c(F)cccc1F (centres unmarked) [VI-111]
[2]; benzoxazines, Table 9
  pIC50: > 4.82

## CC(C)(C)c1cccc(S(=O)(=O)n2ncc3ccc(NC(=O)c4c(Cl)cccc4C(F)(F)F)cc32)c1 [Compound V-34]
[2]; Table 8, indazoles
  pIC50: > 4.82

## O=C(Nc1ccc2cnn(S(=O)(=O)c3cccnc3)c2c1)c1c(F)cccc1Cl [Compound V-94]
[2]; Table 8, indazoles
  pIC50: > 4.82

## O=C(Nc1ccc2cnn(S(=O)(=O)c3cccc(OC(F)F)c3)c2c1)c1c(Cl)cccc1Cl [Compound V-68]
[2]; Table 8, indazoles
  pIC50: > 4.82

## O=C(Nc1ccc2c(C(O)CO)nn(S(=O)(=O)c3cccc(C(F)(F)F)c3)c2c1)c1c(F)cccc1Cl (centres unmarked) [Compound 10, 2-Chloro-N-[3-(1,2-dihydroxyethyl)-1-(3-trifluoromethylbenzenesulfonyl)-1H-indazol-6-yl]-6-fluorobenzamide]
[2]; Table 8, indazoles
  pIC50: > 4.82

## N#Cc1cccc(S(=O)(=O)n2ncc3ccc(NC(=O)c4c(F)cccc4Cl)cc32)c1 [Compound V-121]
[2]; Table 8, indazoles
  pIC50: > 4.82
